Series [1] deals with MCF-7 breast cancer. In words: Antiproliferative effects, crystal violet staining, MCF-7 cells. In kind it is cell-based, human. The procedure:
(§1) MCF-7 breast cancer and HT-29 human colon carcinoma cells were maintained in 10 % (v/v) fetal calf serum containing cell culture medium (minimum essential eagle supplemented with 2.2 g NaHCO3, 110 mg/L sodium pyruvate and 50 mg/L gentamicin sulfate adjusted to pH 7.4) at 37°C/5 % CO2 and passaged twice a week according to standard procedures. The antiproliferative effects of Rh1a - Rh5a were determined by an established procedure. Cells were suspended in cell culture medium (MCF-7: 10000 cells/mL, HT-29: 2850 cells/mL), and 100 µL aliquots thereof were plated in 96 well plates and incubated at 37°C/5 % CO2 for 72 h (MCF-7) or 48 h (HT-29). Stock solutions of the compounds in DMSO were freshly prepared and diluted with cell culture medium to the desired concentrations (final DMSO concentration: 0.1 % v/v). The medium in the plates was replaced with the medium containing the compounds in graded concentrations (six replicates). After further incubation for 96 h (MCF-7) or 72 h (HT-29) the cell biomass was determined by crystal violet staining and the IC50 values were established as those concentrations causing 50 % inhibition of cell proliferation. Results were calculated from 2 - 3 independent experiments. The results are summarized in Tab. 1 and Fig. 4. Table 1 IC50 values (µM) for the complexes mer-[RhCl3(DMSO)(pp)] Rh1a - Rh5a
(§2) The antiproliferative effects of the compounds Ir1a - Ir5a were determined as described in Example 2.

For series [2], the system named is HT-29 human colon carcinoma cells. In words: Antiproliferative effects, crystal violet staining, HT-29 cells. The class given is cell-based. The method, then:
as §1, §2

In series [3] the test system is HT-29. The series is described as follows: Cellular uptake of iridium (GF-AAS), HT-29 cells. In kind it is cell-based, human. The following applies: 6 h, 0.0: value below the detection limit; for HT-29 uptake 10 µM: 10 µM complex; for HT-29 uptake 100 µM: 100 µM complex. The procedure: (§3) For cellular uptake studies, HT-29 and MCF-7 cells were grown until at least 70 % confluency in 175 cm^2 cell culture flasks. Stock solutions of complexes Ir1a - Ir5a in DMSO were freshly prepared and diluted with cell culture medium to the desired concentrations (final DMSO concentrations: 0.1 % v/v, final complex concentration: 10 or 100 µM). The cell culture medium of the cell culture flasks was replaced with 10 mL of the cell culture medium solutions containing Ir1a - Ir5a (10 µM or 100 µM) and the flasks were incubated for 6 h at 37°C/5 % CO2. The cell pellets were isolated, resuspended in 1 - 5 mL […], lysed by using a sonotrode and approximately diluted using twice distilled water. The iridium content of the samples was determined by graphite furnace atomic absorption spectroscopy (GF-AAS) and the protein content of separate aliquots by the Bradford method. To correct for matrix effects in GF-AAS measurements, samples and standards were adjusted to the same protein concentration by dilution with twice distilled water. Prior to GF-AAS analysis 20 µL triton X-100 (1 %) and 20 µL hydrochloric acid were added to each 200 µL sample of the cell suspensions. Cellular uptake was expressed as ng iridium per mg cell protein for data obtained from 3 independent experiments. Conversion of the ng iridium/mg protein value to the micromolar cellular concentration was performed as described previously.
(§4) A Vario 6 graphite furnace atomic absorption spectrometer (Analytik Jena) was employed for the lr quantification using a wavelength of 208.9 nm with a bandpass of 0.5 nm. A deuterium lamp was used for background correction. Matrix containing standards were obtained by addition of an iridium stock solution (1 mg/mL lr in 5 % HCl). 18 % hydrochloric acid solution was employed as a modifier. Probes were injected at a volume of 25 µL into graphite tubes. The detection limit for the method was 3.8 µg Ir L^-1. The mean AUC (area under curve) absorptions of duplicate injections were used throughout the study.

In series [4] the test system is MCF-7 cells. In words: Cellular uptake of iridium (GF-AAS), MCF-7 cells. The class given is cell-based, human. To be noted: 6 h; for MCF-7 uptake 10 µM: 10 µM complex, 0.0: value below the detection limit; for MCF-7 uptake 100 µM: 100 µM complex. The method, then:
as §3, §4

A short description of series [5]: Stability and isomerization in solution (1H NMR). In kind it is physicochemical. The following applies: in DMSO.
The test system of series [6] is LoVo (colon carcinoma). To be noted: Mestroni et al. [1]; cited from earlier work.
For series [7], the system named is Calu (lung carcinoma). The following applies: Mestroni et al. [1]; cited from earlier work.
Series [8] concerns A 2780 (ovarian carcinoma). To be noted: Mestroni et al. [1]; cited from earlier work.
Series [9] deals with tumour cell lines. The following applies: references [7, 8]; cited from earlier work.
The conditions of series [10]: references [3], [4]; cited from earlier work.
Series [11] relates to HT-29 human colon carcinoma cells. The following applies: references [5, 6]; cited from earlier work.
Series [12] concerns MCF-7 breast cancer. The following applies: references [5, 6]; cited from earlier work.
The test system of series [13] is mouse P 388 leukemia. To be noted: reference [2]; cited from earlier work.
Setting [14] is: Table 1, 96 h incubation, 2 - 3 independent experiments, spread in parentheses.
Setting [15] is: Table 1, 72 h incubation, 2 - 3 independent experiments, spread in parentheses.
Setting [16] is: Table 2, determined as described in Example 2.

Like-named read-outs stand apart in the source and are kept apart here.

This is an account of results in patent EP2072521A1, “Octahedral metal (III) polypyridyl complexes and their use in prevention and treatment of cancer” (Freie Universität Berlin, priority 2007, dated 2009).

Turning to mer-[RhCl3(DMSO)(dpq)] [Rh3a], the IC50 (commonly the concentration at which inhibition is half-maximal) in [1] (setting [14]) turned out to be 0.079 µM; in series [2] (setting [15]) it was 0.069 µM.

For mer-[RhCl3(DMSO)(dppz)]·1.5H2O [Rh4a], the values for the IC50 in series [1] (setting [14]) and in series [2] (setting [15]) were 0.095 µM and 0.073 µM, respectively.

For the molecule `CO.C[S+](C)(=O)[Ir-3]1([Cl])([Cl])([Cl])[n+]2cccc3ccc4ccc[n+]1c4c32.O` [Ir2a, fac-[IrCl3(DMSO)(phen)]·CH3OH·H2O], in series [1] (setting [16]), half-maximal inhibition (IC50) was put at 4.6 µM. Also, in series [3], the “HT-29 uptake 10 µM” value stood at 0.0 ng Ir/mg protein and the “HT-29 uptake 100 µM” value is 21.2(5.2) ng Ir/mg protein. In addition, in [4], the “MCF-7 uptake 10 µM” value is 0.0 ng Ir/mg protein and the “MCF-7 uptake 100 µM” value is on record as 74.4(13.5) ng Ir/mg protein. In addition, in series [2] (setting [16]), the IC50 is 4.6 µM.

For the molecule mer-[RhCl3(DMSO)(phen)]·H2O [Rh2a], in series [5], the isomerization entry was “isomerize rapidly to a mixture of fac- and mer-isomers”. Moreover, the results for the IC50 in [1] (setting [14]) and in series [2] (setting [15]) were 0.4 µM and 0.19 µM, respectively.

For the molecule fac-[IrCl3(DMSO)(dppn)]·2CH3OH [Ir5a], the midpoint of inhibition in [1] (setting [16]), the IC50, lay at 0.21 µM. In addition, in series [3], the “HT-29 uptake 10 µM” value is given as 37.4(8.9) ng Ir/mg protein and the “HT-29 uptake 100 µM” value is 226.1(26.6) ng Ir/mg protein. In series [4], the “MCF-7 uptake 10 µM” value is recorded as 19.3(0.8) ng Ir/mg protein and the “MCF-7 uptake 100 µM” value is reported as 180.8(2.7) ng Ir/mg protein. Further, in series [2] (setting [16]), the IC50 was found to be 1.3 µM.

On to mer,cis-[RhCl3(DMSO-κS)(Im)2], for which the IC50 was 40 ± 15 µM in series [6], more than 200 µM in series [7] and more than 200 µM in series [8].

As to mer-[RhCl3(DMSO)(bpy)] [Rh1a], the isomerization entry in series [5] was “isomerize rapidly to a mixture of fac- and mer-isomers”. For the same molecule, the IC50 in series [1] (setting [14]) is 4 µM; in series [2] (setting [15]), 1.9 µM.

Consider “[(η^5-C5Me5)Ir{(Me2N)2CS}(dppn)](CF3SO3) [compound 7, reference compound]”, for which the IC50 in series [1] (setting [16]) worked out at 0.17 µM; in series [2] (setting [16]), 0.41 µM. In [3], the “HT-29 uptake 10 µM” value is reported as 149.6(7.8) ng Ir/mg protein.

For `[Cl][Ir-]([Cl])([Cl])[Cl].c1c[nH+]c[nH]1.c1c[nH]cn1.c1c[nH]cn1` [[ImH][trans-IrCl4(Im)2]], the biological activity entry in series [9] was “biologically inactive”.

fac-[IrC/3(DMSO)(dppz)]·2H2O [Ir4a] returned an IC50 in [1] (setting [16]) of 0.8 µM. Besides, in [3], the “HT-29 uptake 10 µM” value is listed as 11.9(3.0) ng Ir/mg protein and the “HT-29 uptake 100 µM” value is on record as 1664.4(473.1) ng Ir/mg protein. For the same molecule, in [4], the “MCF-7 uptake 10 µM” value was 3.3(3.3) ng Ir/mg protein and the “MCF-7 uptake 100 µM” value is 644.0(149.1) ng Ir/mg protein. The molecule further yielded an IC50 in series [2] (setting [16]) of 1.5 µM.

Regarding `C1CSCCSCCN1.[Cl][Rh]([Cl])[Cl]` [fac-[RhCl3(9-[ane]-NS2)]], the cytotoxicity entry in series [10] is “exhibit cytotoxicity”.

In the case of “[(DMSO)2H] [[(DMSO)2H] [trans-IrCl4(DMSO)2]]”, the biological activity result in series [9] is “biologically inactive”.

On to “[(η^5-C5Me5)IrCl(dppz)](CF3SO3) [compound 6, reference compound]”, for which the IC50 is 7.4 µM in series [11], 2.3 µM in [1] (setting [16]), 2.3 µM in series [12] and 7.4 µM in series [2] (setting [16]). Besides, in [3], the “HT-29 uptake 10 µM” value is 70.4(1.0) ng Ir/mg protein.

fac-[IrCl3(DMSO)(bpy)·2H2O [Ir1a]: the IC50 in series [1] (setting [16]) was more than 100 µM. Moreover, in series [3], the “HT-29 uptake 10 µM” value turned out to be 0.0 ng Ir/mg protein and the “HT-29 uptake 100 µM” value is 0.0 ng Ir/mg protein. In series [2] (setting [16]), this molecule showed an IC50 of more than 100 µM.

Consider `[Cl][Rh]([Cl])[Cl].c1ccc(-c2cccc(-c3ccccn3)n2)nc1` [mer-[RhCl3(tpy)]], for which, in [10], the cytotoxicity result was “exhibit cytotoxicity”.

[ImH][trans-IrCl4(DMSO)(Im)]: the biological activity entry in series [9] was “biologically inactive”.

For mer,cis-[RhCl3(DMSO-κS)(py)2], the “Activity against mouse P 388 leukemia” value in series [13] is reported as “Activity”.

With mer-[RhCl3(DMSO)(dppn)] [Rh5a], the IC50 was 0.051 µM in [1] (setting [14]) and 0.07 µM in series [2] (setting [15]).

As to [Rh(Im)(tpy)2]Cl·3H2O, the cytotoxicity result in series [10] is given as “exhibit cytotoxicity”.

For the molecule fac-[IrC/3(DMSO)(dpq)·3H2O [Ir3a], it took 5.5 µM to reach half-maximal inhibition in [1] (setting [16]) (IC50). Also, in series [3], the “HT-29 uptake 10 µM” value is listed as 0.0 ng Ir/mg protein and the “HT-29 uptake 100 µM” value was 167.8(3.4) ng Ir/mg protein. In series [4], the “MCF-7 uptake 10 µM” value is 0.3(0.3) ng Ir/mg protein and the “MCF-7 uptake 100 µM” value was 640.5(148.9) ng Ir/mg protein. In series [2] (setting [16]), this molecule yielded a 50% inhibitory concentration (IC50) of 6.1 µM.

For the molecule `c1ccc2nc3c4cccnc4c4ncccc4c3nc2c1` [dppz, dipyrido[3,2-a:2',3'-c]phenazine, reference compound], the IC50 in series [1] (Homo sapiens, MCF7, Table 1, 96 h incubation, 2 - 3 independent experiments, spread in parentheses) stood at 0.8 µM; in [1] (Homo sapiens, MCF7, Table 2, determined as described in Example 2), 0.8 µM; in [2] (Homo sapiens, HT-29, Table 1, 72 h incubation, 2 - 3 independent experiments, spread in parentheses), 1.8 µM; in series [2] (Homo sapiens, HT-29, Table 2, determined as described in Example 2), 1.8 µM.

Turning to `N.N.[Cl][Pt][Cl]` [Cisplatin, reference compound], the IC50 was determined as 2 µM in series [1] (setting [14]), 2 µM in series [1] (setting [16]), 7 µM in series [2] (setting [15]) and 7 µM in series [2] (setting [16]).
